The values that follow are results of earlier work, collected in patent US20220279780A1, “AGRICULTURAL FORMULATION” (ISHIHARA SANGYO KAISHA, LTD., priority 2019, published 2022).

With `N#CCNC(=O)c1cnccc1C(F)(F)F` [flonicamid], the water solubility is recorded as 5,200 ppm.
